# Experimental data: patent publication US20240368221A1, “IMPATIENS BALSAMINA-DERIVED ANTI-BACTERIAL PEPTIDE AND ANTI-BACTERIAL COMPOSITION CONTAINING SAME” (V&CO CO., LTD., priority 2021, published 2024)
# Read-outs that look alike come from different tables or passages of the source. Where a SMILES comes first, the peptide text is derived from it.
# Assays:
# [1] = system: Staphylococcus aureus KCTC 1621; type: cell-based
# Method: (§1) To examine the antimicrobial and antifungal activity of the six types of peptide derivatives prepared in Example 1, antimicrobial and antifungal activity was analyzed using three types of bacterial strains and two types of fungal strains.
# (§2) Specifically, to analyze antimicrobial and antifungal activity, a minimal inhibitory concentration (MIC) was measured. The three types of bacterial strains included Escherichia coli KCCM 41290, Staphylococcus aureus KCTC 1621, and Cutibacterium acnes KCTC 3314, and the two types of fungal strains included Candida albicans KCTC 17712, and Aspergillus niger KCTC 6317. The culture of Escherichia coli and Staphylococcus aureus was performed in Luria-Bertani (LB) medium (BD Difco), and the culture of Cutibacterium acnes was performed in reinforced clostridial medium (RCM, BD Difco). The culture of Candida albicans and Aspergillus niger was performed in potato dextrose (PD) medium (BD Difco). The pre-cultured microorganisms or spores were diluted in a medium to 5×10^3 CFU/mL, and each of the six types of peptide derivatives prepared in Example 1 was added at a predetermined concentration. Afterward, a bacterial strain was cultured at 37° C., a fungal strain was cultured at 25° C. for 18 to 24 hours, and optical densities (OD600) were measured using a microplate reader. Fluorescence values (Ex560 and Em600), instead of optical densities, were measured after adding a resazurin reagent to the Aspergillus niger medium to have a concentration of 100 μM. As a control, Ib-AMP4 was used, and the analysis results were expressed as the average of three repeated experiments.
# [2] = system: Escherichia coli KCCM 41290; type: cell-based
# Method: as §1, §2
# [3] = system: Candida albicans KCTC 17712; type: cell-based
# Method: as §1, §2
# [4] = system: Aspergillus niger KCTC 6317; type: cell-based
# Method: as §1, §2
# [5] = system: Cutibacterium acnes KCTC 3314; type: cell-based
# Method: as §1, §2
# [6] = system: L929 cells (murine fibroblast cell line); assay: Cytotoxicity, WST-1 cell viability; type: cell-based
# Method: (§3) Specifically, cytotoxicity was evaluated using a skin cell line, L929 cells (murine fibroblast cell line). In addition, as comparative groups, Ib-AMP4 and the bee venom-derived AMP, melittin, known to be highly cytotoxic, were used. The L929 cells were cultured in RPMI 1640 medium (Gibco), which was supplemented with 10% FBS (Sigma), antibiotic-antimycotic cocktail, penicillin G (100 IU/mL), streptomycin (100 μg/mL), and amphotericin B (250 ng/ml; Gibco), at 37° C. in 5% CO2. The cells were seeded in a 96-well plate at 1×10^4 cell/well, incubated for 18 hours, treated with each peptide at 1.25 to 160 µg/mL, and then incubated for 24 hours. 10 μL of WST-1 reagent was added to 100 μL of the medium and allowed to react at 37° C. for 30 minutes, and then absorbance (A450) was measured at 450 nm using a microplate reader. Instead of the peptides, 0.1% Triton X-100 and PBS were used as positive and negative controls, respectively, and cell viability was calculated based on the following equation: % Cell viability=[(A450 in peptide solution−A450 in PBS)/(A450 in 0.1% Triton X−100-A450 in PBS)]×100. The analysis results were expressed as mean±S.D of three repeated experiments.
# [7] = Cytotoxicity, WST-1 cell viability; type: cell-based, murine; conditions: mouse, L929 cells (murine fibroblast cell line)
# Method: as §3
# [8] = system: sheep red blood cells (sRBCs); assay: Hemolytic activity; type: cell-based; conditions: for Hemolytic Activity (%): 5% sRBC, 30 minutes, room temperature
# Method: Specifically, hemolytic activity was analyzed using sheep red blood cells (sRBCs). In addition, as comparative groups, Ib-AMP4 and melittin were used. Defibrinated sheep blood (MB cells) was centrifuged (4,000×g, 10 min, 4° C.), washed with PBS three times, and suspended in PBS, thereby preparing an sRBC solution (10% sRBC). 5% sRBC and each peptide were mixed to have a final concentration of 1.25 to 160 μg/mL, allowed to react at room temperature for 30 minutes, and centrifuged to collect a supernatant. The absorbance (A414) of hemoglobin eluted from the red blood cells in the collected supernatant was measured at 414 nm. 0.1% Triton X−100 was used as a positive control, PBS was used as a negative control, and hemolytic activity (% Hemolysis) was calculated based on the following equation: % Hemolysis=[(A414 in peptide solution−A414 in PBS)/(A414 in 0.1% Triton X−100−A414 in PBS)]×100.
# [9] = Escherichia coli, LB medium, 37° C., 18 to 24 hours, OD600
# [10] = Staphylococcus aureus, LB medium, 37° C., 18 to 24 hours, OD600
# [11] = Candida albicans, PD medium, 25° C., 18 to 24 hours, OD600
# [12] = Aspergillus niger, PD medium, 25° C., 18 to 24 hours, resazurin fluorescence
# [13] = Cutibacterium acnes, RCM, 37° C., 18 to 24 hours, OD600
smiles,measurement,setting,value
CC[C@H](C)[C@H](NC(=O)[C@H](Cc1ccccc1)NC(=O)[C@H](CCCCN)NC(=O)[C@H](CCSC)NC(=O)[C@H](CCCCN)NC(=O)[C@H](CCCNC(=N)N)NC(=O)[C@H](CCCNC(=N)N)NC(=O)[C@@H](NC(=O)[C@H](Cc1c[nH]c2ccccc12)NC(=O)[C@@H](N)CCC(=O)O)C(C)C)C(=O)N[C@@H](CC(N)=O)C(=O)N[C@@H](CO)C(=O)N[C@@H](CC(C)C)C(=O)N[C@@H](Cc1ccc(O)cc1)C(=O)N[C@@H](CO)C(=O)N[C@@H](Cc1c[nH]c2ccccc12)C(N)=O [VESCA-OH3] (H-EWVRRKMKFINSLYSW-NH2; N-terminus assumed),MIC,[1]; KCTC 1621,5 mg/L
same,antimicrobial activity (MIC),"[1]; Staphylococcus aureus, text of b72",5 mg/L
same,MIC,[2]; [9],40 mg/L
same,MIC,[3]; KCTC 17712,100 mg/L
same,MIC,[4]; KCTC 6317,80 mg/L
same,MIC,[5]; KCTC 3314,>100 mg/L
N=C(N)NCCC[C@H](NC(=O)[C@H](CCCNC(=N)N)NC(=O)[C@H](CCCCN)NC(=O)[C@H](Cc1c[nH]c2ccccc12)NC(=O)[C@H](CCC(=O)O)NC(=O)[C@@H](N)Cc1ccc(O)cc1)C(=O)N[C@@H](CS)C(=O)N[C@@H](CS)C(=O)N[C@@H](CCCCN)C(N)=O [VESCA-NH4] (H-YEWKRRCCK-NH2; N-terminus assumed),MIC,[1]; KCTC 1621,>100 mg/L
same,MIC,[2]; KCCM 41290,>100 mg/L
same,MIC,[3]; KCTC 17712,100 mg/L
same,MIC,[4]; KCTC 6317,>100 mg/L
same,MIC,[5]; KCTC 3314,>100 mg/L
CC[C@H](C)[C@H](NC(=O)CN)C(=O)NCC(=O)N[C@@H](C)C(=O)N[C@H](C(=O)N[C@@H](CC(C)C)C(=O)N[C@@H](CCCCN)C(=O)N[C@H](C(=O)N[C@@H](CC(C)C)C(=O)N[C@H](C(=O)N[C@H](C(=O)NCC(=O)N[C@@H](CC(C)C)C(=O)N1CCC[C@H]1C(=O)N[C@@H](C)C(=O)N[C@@H](CC(C)C)C(=O)N[C@H](C(=O)N[C@@H](CO)C(=O)N[C@@H](Cc1c[nH]c2ccccc12)C(=O)N[C@H](C(=O)N[C@@H](CCCCN)C(=O)N[C@@H](CCCNC(=N)N)C(=O)N[C@@H](CCCCN)C(=O)N[C@@H](CCCNC(=N)N)C(=O)N[C@@H](CCC(N)=O)C(=O)N[C@@H](CCC(N)=O)C(N)=O)[C@@H](C)CC)[C@@H](C)CC)[C@@H](C)O)[C@@H](C)O)C(C)C)C(C)C [Melittin],Relative cell viability (%),"[6]; L929 cells, peptide 5.0 μg/mL, 24 hours",2.1%
same,"viability at 24 h, 1.25 µg/mL","[7]; L929 cells, peptide 1.25 μg/mL, 24 hours, read-out: Relative cell viability (%)",97.4%
same,"viability at 24 h, 2.5 µg/mL","[7]; L929 cells, peptide 2.5 μg/mL, 24 hours, read-out: Relative cell viability (%)",51.1%
same,"viability at 24 h, 5 µg/mL","[7]; L929 cells, peptide 5.0 μg/mL, 24 hours, read-out: Relative cell viability (%)",2.1%
same,"viability at 24 h, 10 µg/mL","[7]; L929 cells, peptide 10 μg/mL, 24 hours, read-out: Relative cell viability (%)",0.2%
same,"viability at 24 h, 20 µg/mL","[7]; L929 cells, peptide 20 μg/mL, 24 hours, read-out: Relative cell viability (%)",0.8%
same,"viability at 24 h, 40 µg/mL","[7]; L929 cells, peptide 40 μg/mL, 24 hours, read-out: Relative cell viability (%)",0.3%
same,"viability at 24 h, 80 µg/mL","[7]; L929 cells, peptide 80 μg/mL, 24 hours, read-out: Relative cell viability (%)",0.5%
same,"viability at 24 h, 160 µg/mL","[7]; L929 cells, peptide 160 μg/mL, 24 hours, read-out: Relative cell viability (%)",0.6%
same,Hemolytic Activity (%),[8]; peptide 1.25 μg/mL,0.98%
same,Hemolytic Activity (%),[8]; peptide 2.5 μg/mL,3.40%
same,Hemolytic Activity (%),[8]; peptide 5.0 μg/mL,14.0%
same,Hemolytic Activity (%),[8]; peptide 10 μg/mL,25.02%
same,Hemolytic Activity (%),[8]; peptide 20 μg/mL,96.10%
same,Hemolytic Activity (%),[8]; peptide 40 μg/mL,99.36%
N=C(N)NCCC[C@H](NC(=O)CNC(=O)[C@H](Cc1c[nH]c2ccccc12)NC(=O)[C@H](CCC(=O)O)NC(=O)[C@@H](N)CC(=O)O)C(=O)N[C@@H](CCCNC(=N)N)C(=O)N[C@@H](CS)C(=O)N[C@@H](CS)C(=O)NCC(N)=O [VESCA-NH2] (H-DEWGRRCCG-NH2; N-terminus assumed),MIC,[1]; KCTC 1621,>100 mg/L
same,MIC,[2]; KCCM 41290,>100 mg/L
same,MIC,[3]; KCTC 17712,>100 mg/L
same,MIC,[4]; KCTC 6317,>100 mg/L
same,MIC,[5]; KCTC 3314,>100 mg/L
N=C(N)NCCC[C@H](NC(=O)[C@H](CCCNC(=N)N)NC(=O)[C@H](CS)NC(=O)[C@H](Cc1ccc(O)cc1)NC(=O)[C@H](CCCNC(=N)N)NC(=O)[C@H](CCCNC(=N)N)NC(=O)CNC(=O)[C@@H]1CCCN1C(=O)CN)C(N)=O [VESCA1] (H-GPGRRYCRR-NH2; N-terminus assumed),MIC,[1]; [10],>100 mg/L
same,MIC,[2]; [9],>100 mg/L
same,MIC,[3]; [11],40 mg/L
same,MIC,[4]; [12],60 mg/L
same,MIC,[5]; [13],>100 mg/L
N=C(N)NCCC[C@H](NC(=O)[C@H](CCCNC(=N)N)NC(=O)[C@H](Cc1c[nH]c2ccccc12)NC(=O)[C@H](Cc1ccc(O)cc1)NC(=O)[C@H](CCCNC(=N)N)NC(=O)[C@H](CCCNC(=N)N)NC(=O)[C@H](Cc1c[nH]c2ccccc12)NC(=O)[C@@H]1CCCN1C(=O)CN)C(N)=O [VESCA3] (H-GPWRRYWRR-NH2),MIC,[1]; KCTC 1621,5 mg/L
same,MIC,[2]; KCCM 41290,60 mg/L
same,MIC,[3]; KCTC 17712,20 mg/L
same,MIC,[4]; KCTC 6317,40 mg/L
same,MIC,[5]; KCTC 3314,>100 mg/L
same,cytotoxic activity (in words),[6],insignificant cytotoxic and hemolytic activity
same,"viability at 24 h, 1.25 µg/mL",[7],96.7%
same,"viability at 24 h, 2.5 µg/mL",[7],104%
same,"viability at 24 h, 5 µg/mL",[7],104%
same,"viability at 24 h, 10 µg/mL",[7],97.1%
same,"viability at 24 h, 20 µg/mL",[7],99.7%
same,"viability at 24 h, 40 µg/mL",[7],91.9%
same,"viability at 24 h, 80 µg/mL",[7],91.6%
same,"viability at 24 h, 160 µg/mL",[7],94.9%
same,"viability at 24 h, 160 g/mL",[7],≥ 90%
same,hemolytic activity (in words),[8],insignificant cytotoxic and hemolytic activity
C[C@H](NC(=O)[C@H](Cc1ccc(O)cc1)NC(=O)[C@H](CCCNC(=N)N)NC(=O)[C@H](CCCNC(=N)N)NC(=O)CNC(=O)[C@@H]1CCCN1C(=O)CN)C(=O)N[C@@H](CCCNC(=N)N)C(=O)N[C@@H](CCCNC(=N)N)C(N)=O [VESCA2] (H-GPGRRYARR-NH2; N-terminus assumed),MIC,[1]; [10],>100 mg/L
same,MIC,[2]; [9],>100 mg/L
same,MIC,[3]; [11],60 mg/L
same,MIC,[4]; [12],80 mg/L
same,MIC,[5]; [13],>100 mg/L
